Results as given in US20100168102A9, “Amide Derivatives as Kinase Inhibitors” (Devgen NV, priority 2005, published 2010).
Where a name gives a salt, the structure may show the parent alone. Read-outs that look alike come from different tables or passages of the source.

What was measured:
human ROCKα/ROCKII mix = target: T1, human ROCKα/ROCKII mix (Homo sapiens, UniProt O75116); assay: Biochemical assay for ROCK (fluorescence polarization, ROCK IMAP Kit)
T1 construct: purchased Upstate Biotechnology 14-451
T1 sequence (O75116 11-552 limits assumed): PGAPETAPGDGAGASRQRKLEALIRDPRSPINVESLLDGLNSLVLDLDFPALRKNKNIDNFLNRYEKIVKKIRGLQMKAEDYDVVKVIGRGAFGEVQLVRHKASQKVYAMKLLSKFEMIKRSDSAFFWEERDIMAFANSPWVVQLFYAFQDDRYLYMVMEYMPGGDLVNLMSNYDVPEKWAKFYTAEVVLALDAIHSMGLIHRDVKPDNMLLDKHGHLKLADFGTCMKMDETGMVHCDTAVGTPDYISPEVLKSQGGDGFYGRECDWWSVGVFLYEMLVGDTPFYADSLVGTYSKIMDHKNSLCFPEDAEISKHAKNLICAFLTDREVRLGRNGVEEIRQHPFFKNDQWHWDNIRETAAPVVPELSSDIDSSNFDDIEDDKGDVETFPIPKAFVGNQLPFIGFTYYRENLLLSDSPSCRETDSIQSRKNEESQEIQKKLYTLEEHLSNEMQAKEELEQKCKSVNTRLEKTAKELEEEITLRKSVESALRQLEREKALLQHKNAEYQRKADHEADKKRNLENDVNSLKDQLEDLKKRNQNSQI

PKC epsilon = target: T2, PKC epsilon (Homo sapiens, UniProt Q02156); assay: Biochemical assay for PKC epsilon (fluorescence polarization, Protein Kinase C Assay Kit, Red); conditions: read-out: IC50 μM PKCε
T2 construct: purchased Invitrogen P2282
T2 sequence (Q02156 1-737): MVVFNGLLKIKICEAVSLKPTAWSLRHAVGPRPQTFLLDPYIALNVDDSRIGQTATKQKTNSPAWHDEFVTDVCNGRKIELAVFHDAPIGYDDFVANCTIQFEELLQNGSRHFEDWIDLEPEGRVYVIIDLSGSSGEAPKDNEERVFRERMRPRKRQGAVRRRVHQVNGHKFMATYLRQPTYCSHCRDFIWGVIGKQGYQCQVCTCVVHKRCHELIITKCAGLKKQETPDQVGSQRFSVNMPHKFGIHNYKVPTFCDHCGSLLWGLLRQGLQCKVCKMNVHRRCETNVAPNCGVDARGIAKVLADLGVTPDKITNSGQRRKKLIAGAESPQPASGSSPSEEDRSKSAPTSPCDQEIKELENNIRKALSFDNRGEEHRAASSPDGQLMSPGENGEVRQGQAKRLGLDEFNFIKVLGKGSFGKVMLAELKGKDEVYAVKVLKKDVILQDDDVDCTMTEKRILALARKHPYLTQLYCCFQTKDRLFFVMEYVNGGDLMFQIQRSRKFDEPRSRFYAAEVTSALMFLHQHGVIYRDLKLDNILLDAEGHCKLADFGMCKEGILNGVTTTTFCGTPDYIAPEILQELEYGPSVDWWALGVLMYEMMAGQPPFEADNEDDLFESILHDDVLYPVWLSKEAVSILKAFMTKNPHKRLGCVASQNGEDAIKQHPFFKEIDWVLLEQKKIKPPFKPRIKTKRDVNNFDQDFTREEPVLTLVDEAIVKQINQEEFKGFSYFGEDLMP
In short: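 Read-out was fluorescence-polarization competition between phosphorylated substrate and a rhodamine PKC tracer for an anti-phosphoserine antibody, added with EDTA stop after an 80 min room-temperature kinase reaction with ATP and protein substrate (Mg2+/Ca2+ buffer). Enzyme (10 ng/ml final) was preincubated with compound for 30 min.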

[1] = Table 2, compounds of Formula XIII

| IC50 (human ROCKα/ROCKII mix; [1]) [µM] | IC50 (PKC epsilon; [1]) [µM] | IC50 (human ROCKα/ROCKII mix) [µM] | IC50 (PKC epsilon) [µM] | Structure (SMILES) |
| --- | --- | --- | --- | --- |
| 0.05 to 0.5 | < 0.05 |  |  | CC(C)(C(=O)NCC(N)c1ccc(C(=O)Nc2ccncc2)cc1)c1ccc(F)cc1F (centres unmarked) [Compound 384, 4-{1-Amino-2-[2-(2,4-difluoro-phenyl)-2-methyl-propionylamino]-ethyl}-N-pyridin-4-yl-benzamide] |
| 0.05 to 0.5 | < 0.05 |  |  | NC(CNC(=O)C1(c2ccc(F)cc2F)CC1)c1ccc(C(=O)Nc2ccncc2)cc1 (centres unmarked) [Compound 385, 4-(1-Amino-2-{[1-(2,4-difluoro-phenyl)-cyclopropanecarbonyl]-amino}-ethyl)-N-pyridin-4-yl-benzamide] |
| 0.05 to 0.5 | < 0.05 |  |  | CC(C)(C(=O)NCC(N)c1ccc(C(=O)Nc2ccncc2)cc1)c1ccc(F)cc1Cl (centres unmarked) [Compound 386, 4-{1-Amino-2-[2-(2-chloro-4-fluoro-phenyl)-2-methyl-propionylamino]-ethyl}-N-pyridin-4-yl-benzamide] |
| 0.05 to 0.5 | < 0.05 |  |  | NC(CNC(=O)C1(c2ccc(F)cc2Cl)CC1)c1ccc(C(=O)Nc2ccncc2)cc1 (centres unmarked) [Compound 387, 4-(1-Amino-2-{[1-(2-chloro-4-fluoro-phenyl)-cyclopropanecarbonyl]-amino}-ethyl)-N-pyridin-4-yl-benzamide] |
| 0.05 to 0.5 | < 0.05 |  |  | CC(C)(C(=O)NCC(N)c1ccc(C(=O)Nc2ccncc2)cc1)c1ccc(Cl)cc1F (centres unmarked) [Compound 388, 4-{1-Amino-2-[2-(4-chloro-2-fluoro-phenyl)-2-methyl-propionylamino]-ethyl}-N-pyridin-4-yl-benzamide] |
| 0.05 to 0.5 | < 0.05 |  |  | NC(CNC(=O)C1(c2ccc(Cl)cc2F)CC1)c1ccc(C(=O)Nc2ccncc2)cc1 (centres unmarked) [Compound 389, 4-(1-Amino-2-{[1-(4-chloro-2-fluoro-phenyl)-cyclopropanecarbonyl]-amino}-ethyl)-N-pyridin-4-yl-benzamide] |
| 0.05 to 0.5 | 0.05 to 0.5 |  |  | NC(CNC(=O)C1CCOc2ccccc21)c1ccc(C(=O)Nc2ccncc2)cc1 (centres unmarked) [Compound 390, Chroman-4-carboxylic acid {2-amino-2-[4-(pyridin-4-ylcarbamoyl)-phenyl]-ethyl}-amide] |
| 0.05 to 0.5 | 0.05 to 0.5 |  |  | NC(CNC(=O)C1CCSc2ccccc21)c1ccc(C(=O)Nc2ccncc2)cc1 (centres unmarked) [Compound 391, Thiochroman-4-carboxylic acid {2-amino-2-[4-(pyridin-4-ylcarbamoyl)-phenyl]-ethyl}-amide] |
| 0.05 to 0.5 | 0.05 to 0.5 |  |  | NC(CNC(=O)C1CCOc2ccc(F)cc21)c1ccc(C(=O)Nc2ccncc2)cc1 (centres unmarked) [Compound 393, 6-Fluoro-chroman-4-carboxylic acid {2-amino-2-[4-(pyridin-4-ylcarbamoyl)-phenyl]-ethyl}-amide] |
|  |  | 0.05 to 0.5 | < 0.05 | N[C@H](CNC(=O)C1(c2ccc(Cl)cc2)CC1)c1ccc(C(=O)Nc2ccncc2)cc1 [Compound 397, 4-((S)-1-Amino-2-{[1-(4-chloro-phenyl)-cyclopropanecarbonyl]-amino}-ethyl)-N-pyridin-4-yl-benzamide dihydrochloric acid salt] |
|  |  | 0.5 to 5 | 0.5 to 5 | N[C@@H](CNC(=O)C1(c2ccc(Cl)cc2)CC1)c1ccc(C(=O)Nc2ccncc2)cc1 [Compound 398, 4-((R)-1-Amino-2-{[1-(4-chloro-phenyl)-cyclopropanecarbonyl]-amino}-ethyl)-N-pyridin-4-yl-benzamide dihydrochloric acid salt] |
|  |  | 0.5 to 5 | 0.5 to 5 | CC(C)(C(=O)NC[C@H](N)c1ccc(C(=O)Nc2ccncc2)cc1)c1ccc(Cl)cc1 [Compound 400, 4-{(R)-1-Amino-2-[2-(4-chloro-phenyl)-2-methyl-propionylamino]-ethyl}-N-pyridin-4-yl-benzamide] |
|  |  | 0.05 to 0.5 | < 0.05 | N[C@H](CC(=O)NCc1ccc(F)cc1)c1ccc(C(=O)Nc2ccncc2)cc1 [Compound 401, 4-[(R)-1-Amino-2-(4-fluoro-benzylcarbamoyl)-ethyl]-N-pyridin-4-yl-benzamide dihydrochloric acid salt] |
|  |  | 0.05 to 0.5 | 0.05 to 0.5 | N[C@@H](CC(=O)NCc1ccc(F)cc1)c1ccc(C(=O)Nc2ccncc2)cc1 [Compound 402, 4-[(S)-1-Amino-2-(4-fluoro-benzylcarbamoyl)-ethyl]-N-pyridin-4-yl-benzamide dihydrochloric acid salt] |
|  |  | < 0.05 | < 0.05 | N[C@H](CC(=O)N[C@@H]1COc2ccccc21)c1ccc(C(=O)Nc2ccncc2)cc1 [Compound 405, 4-{(R)-1-Amino-2-[(S)-(2,3-dihydro-benzofuran-3-yl)carbamoyl]-ethyl}-N-pyridin-4-yl-benzamide] |
|  |  | 0.05 to 0.5 | 0.05 to 0.5 | N[C@H](CC(=O)N[C@H]1COc2ccccc21)c1ccc(C(=O)Nc2ccncc2)cc1 [Compound 406, 4-{(R)-1-Amino-2-[(R)-(2,3-dihydro-benzofuran-3-yl)carbamoyl]-ethyl}-N-pyridin-4-yl-benzamide] |
|  |  | 0.05 to 0.5 | < 0.05 | N[C@H](CNC(=O)C1(c2ccc(F)cc2)CCCC1)c1ccc(C(=O)Nc2ccncc2)cc1 [Compound 417, 4-((S)-1-Amino-2-{[1-(4-fluoro-phenyl)-cyclopentanecarbonyl]-amino}-ethyl)-N-pyridin-4-yl-benzamide dihydrochloric acid salt] |
|  |  | 0.5 to 5 | 0.05 to 0.5 | N[C@@H](CNC(=O)C1(c2ccc(F)cc2)CCCC1)c1ccc(C(=O)Nc2ccncc2)cc1 [Compound 418, 4-((R)-1-Amino-2-{[1-(4-fluoro-phenyl)-cyclopentanecarbonyl]-amino}-ethyl)-N-pyridin-4-yl-benzamide dihydrochloric acid salt] |
|  |  | 0.05 to 0.5 | < 0.05 | CC(C)(C(=S)NCC(N)c1ccc(C(=O)Nc2ccncc2)cc1)c1ccc(F)cc1 (centres unmarked) [Compound 419, 4-{1-Amino-2-[2-(4-fluoro-phenyl)-2-methyl-thiopropionylamino]-ethyl}-N pyridin-4-yl-benzamide dihydrochloric acid salt] |
|  |  | 0.5 to 5 | 5 to 50 | Cc1ccccc1CC(=O)N(C)CC(N)c1ccc(C(=O)Nc2ccncc2)cc1 (centres unmarked) [Compound 422, 4-{1-Amino-2-[methyl-(2-o-tolyl-acetyl)-amino]-ethyl}-N-pyridin-4-yl-benzamide] |
|  |  | 0.5 to 5 | 5 to 50 | Cc1cccc(CC(=O)N(C)CC(N)c2ccc(C(=O)Nc3ccncc3)cc2)c1 (centres unmarked) [Compound 423, 4-{1-Amino-2-[methyl-(2-m-tolyl-acetyl)-amino]-ethyl}-N-pyridin-4-yl-benzamide] |
|  |  | 0.5 to 5 | 5 to 50 | Cc1ccc(CC(=O)N(C)CC(N)c2ccc(C(=O)Nc3ccncc3)cc2)cc1 (centres unmarked) [Compound 424, 4-{1-Amino-2-[methyl-(2-p-tolyl-acetyl)-amino]-ethyl}-N-pyridin-4-yl-benzamide] |
|  |  | 0.5 to 5 | 5 to 50 | COc1ccccc1CC(=O)N(C)CC(N)c1ccc(C(=O)Nc2ccncc2)cc1 (centres unmarked) [Compound 425, 4-(1-Amino-2-{[2-(2-methoxy-phenyl)-acetyl]-methyl-amino}-ethyl)-N-pyridin-4-yl-benzamide] |
|  |  | 0.05 to 0.5 | 5 to 50 | COc1cccc(CC(=O)N(C)CC(N)c2ccc(C(=O)Nc3ccncc3)cc2)c1 (centres unmarked) [Compound 426, 4-(1-Amino-2-{[2-(3-methoxy-phenyl)-acetyl}-methyl-amino}-ethyl)-N-pyridin-4-yl-benzamide] |
|  |  | 0.05 to 0.5 | 5 to 50 | COc1ccc(CC(=O)N(C)CC(N)c2ccc(C(=O)Nc3ccncc3)cc2)cc1 (centres unmarked) [Compound 427, 4-(1-Amino-2-{[2-(4-methoxy-phenyl)-acetyl]-methyl-amino}-ethyl)-N-pyridin-4-yl-benzamide] |
|  |  | 0.5 to 5 | 5 to 50 | COc1ccc(C2(C(=O)N(C)CC(N)c3ccc(C(=O)Nc4ccncc4)cc3)CC2)cc1 (centres unmarked) [Compound 428, 4-(1-Amino-2-{[1-(4-methoxy-phenyl)-cyclopropanecarbonyl]-methyl-amino}-ethyl)-N-pyridin-4-yl-benzamide] |
|  |  | 0.05 to 0.5 | 5 to 50 | COc1ccc(CC(=O)N(C)CC(N)c2ccc(C(=O)Nc3ccncc3)cc2)c(OC)c1 (centres unmarked) [Compound 430, 4-(1-Amino-2-{[2-(2,4-dimethoxy-phenyl)-acetyl]-methyl-amino}-ethyl)-N-pyridin-4-yl-benzamide] |
|  |  | 0.5 to 5 | 0.5 to 5 | CN(CC(N)c1ccc(C(=O)Nc2ccncc2)cc1)C(=O)C1(c2ccc(F)cc2)CCC1 (centres unmarked) [Compound 474, 4-(1-Amino-2-{[1-(4-fluoro-phenyl)-cyclobutanecarbonyl]-methyl-amino}-ethyl)-N-pyridin-4-yl-benzamide] |
